Experimental data: ChEMBL document CHEMBL1201862, “PubChem BioAssay data set” (2004)
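Cells were grown in 96-well plates and exposed to each compound for 48 hours at five concentrations; endpoints were interpolated linearly between bracketing concentrations, or set to the highest concentration if not reached. GI50 = concentration required for 50% inhibition of growth.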 Activity calls are given as the source filed them. Cut-off read from the data, not from the text of the source: active = GI50 up to about 1.1 µM and inactive = higher.

Experiments:
Experiment in all cases: inhibition of tumour cell growth, NCI panel, 48 h
M19-MEL = tested on: M19-MEL
RXF 631 = tested on: RXF 631
LXFL 529 = tested on: LXFL 529
SNB-78 = tested on: SNB-78
DLD-1 = tested on: DLD-1
KM-20L2 = tested on: KM-20L2
XF498 = tested on: XF498
DMS-114 = tested on: DMS-114
HOP-18 = tested on: HOP-18

Row | Compound | GI50 (M19-MEL) | GI50 (RXF 631) | GI50 (LXFL 529) | GI50 (SNB-78) | GI50 (DLD-1) | GI50 (KM-20L2) | GI50 (XF498) | GI50 (DMS-114) | GI50 (HOP-18)
1 | C/C(CC(=O)Nc1cc(C)ccc1C)=N\NC(=O)c1ccncc1 | > 100 µM (inactive) | > 100 µM (inactive) | > 100 µM (inactive) | > 100 µM (inactive) | > 100 µM (inactive) | > 100 µM (inactive) | – | – | –
2 | COC1=C(C)C(=O)C2C(C1=O)C(c1ccc(OC)c(OC)c1)[C@H]2C (stereo not given in full) | > 100 µM (inactive) | > 100 µM (inactive) | > 100 µM (inactive) | > 100 µM (inactive) | > 100 µM (inactive) | – | > 100 µM (inactive) | – | –
3 | O=C(c1ccncc1)n1nc(-c2ccccc2)c(/N=N/c2ccccc2[N+](=O)[O-])c1-c1ccccc1 | > 100 µM (inactive) | 38.5 µM (inactive) | 74.6 µM (inactive) | 65.3 µM (inactive) | 49.9 µM (inactive) | – | 33.5 µM (inactive) | 21 µM (inactive) | –
4 | COc1cc2c(cc1OC(=O)CC(C)O)C1C(OC2=O)C(OC(C)=O)C=C2CCN(C)[C@H]21 (stereo not given in full) | 78.9 µM (inactive) | 31 µM (inactive) | 82.4 µM (inactive) | 20.7 µM (inactive) | 69 µM (inactive) | > 100 µM (inactive) | 20.1 µM (inactive) | – | 26.9 µM (inactive)
5 | C[N+](C)(C)CC(CC(=O)[O-])C1CC1 (stereo not given) | > 100 µM (inactive) | > 100 µM (inactive) | > 100 µM (inactive) | – | – | > 100 µM (inactive) | > 100 µM (inactive) | > 100 µM (inactive) | > 100 µM (inactive)
6 | FC(F)(F)c1cccc(C2SCc3nc4ccccc4n32)c1 (stereo not given) | > 100 µM (inactive) | – | 27.8 µM (inactive) | > 100 µM (inactive) | 54.2 µM (inactive) | – | – | 18.5 µM (inactive) | –
7 | O=C(Cc1nc2c3c(ccc2nc1O)C(=O)c1ccccc1C3=O)C(=O)Nc1ccccc1[N+](=O)[O-] | 22.2 µM (inactive) | – | 4.24 µM (inactive) | 4.22 µM (inactive) | – | 19.6 µM (inactive) | 12.6 µM (inactive) | – | –
8 | Cc1ccc(NC(=O)C(=O)CC(=O)C2CCOC2=O)c(C)c1 (stereo not given) | – | > 100 µM (inactive) | > 100 µM (inactive) | > 100 µM (inactive) | > 100 µM (inactive) | > 100 µM (inactive) | > 100 µM (inactive) | > 100 µM (inactive) | > 100 µM (inactive)
9 | O=c1oc2c(O)c(O)cc3c(=O)oc4c(O)c(O)cc1c4c23 [ELLAGIC ACID] | > 10 µM (inactive) | > 10 µM (inactive) | 37 µM (inactive) | > 10 µM (inactive) | > 10 µM (inactive) | 94.4 µM (inactive) | 35.2 µM (inactive) | 33.4 µM (inactive) | > 10 µM (inactive)
10 | Cc1cc(NCCCCCCCCNc2cc(C)nc3cc(N(C)C)ccc23)c2ccc(N(C)C)cc2n1 | 2.78 µM (inactive) | – | 1.69 µM (inactive) | 5.47 µM (inactive) | – | 4.29 µM (inactive) | 1.98 µM (inactive) | 1.39 µM (inactive) | –
11 | COc1cc(C(O)C(=O)c2cnc3cc([N+](=O)[O-])ccc3n2)ccc1O (stereo not given) | > 100 µM (inactive) | > 100 µM (inactive) | 74.1 µM (inactive) | – | > 100 µM (inactive) | 85.5 µM (inactive) | > 100 µM (inactive) | 49.9 µM (inactive) | –
12 | CCCCCCCCCCCCCCCCCCCCCC(=O)Nc1ccn(C2OC(CO)C(O)C2O)c(=O)n1 (stereo not given) | 8.17 µM (inactive) | – | > 100 µM (inactive) | > 100 µM (inactive) | > 100 µM (inactive) | > 100 µM (inactive) | > 100 µM (inactive) | 1.04 µM (active) | > 100 µM (inactive)
13 | C=C1C2CC(OC(C)=O)C3(C)C(c4ccoc4)OC(=O)[C@@H](O)[C@]13OC1C[C@H](OC(C)=O)C(C)(C)[C@H](C(O)C(=O)OC)[C@]12C (stereo not given in full) | > 100 µM (inactive) | – | > 100 µM (inactive) | > 100 µM (inactive) | > 100 µM (inactive) | > 100 µM (inactive) | – | > 100 µM (inactive) | > 100 µM (inactive)
14 | NNC(=O)C(=O)N/N=C1\CCC(=O)CC1C(=O)CCC(=O)Nc1ccc(Cl)cc1 (stereo not given) | > 100 µM (inactive) | – | > 100 µM (inactive) | > 100 µM (inactive) | > 100 µM (inactive) | > 100 µM (inactive) | – | – | 95.5 µM (inactive)
15 | NC(=S)N1N=C2c3ccccc3CCC[C@H]2[C@@H]1c1ccccc1 | 2.81 µM (inactive) | – | 3.89 µM (inactive) | 5.77 µM (inactive) | 3.42 µM (inactive) | 2.01 µM (inactive) | 4.55 µM (inactive) | 3.98 µM (inactive) | –
16 | COc1ccc(-c2cc(O)c3ccc(F)cc3n2)cc1 | > 100 µM (inactive) | > 100 µM (inactive) | > 100 µM (inactive) | > 100 µM (inactive) | > 100 µM (inactive) | > 100 µM (inactive) | > 100 µM (inactive) | > 100 µM (inactive) | > 100 µM (inactive)
17 | COc1cc(/C=C\c2ccc(Cl)cc2)cc(OC)c1OC | 0.389 µM (active) | 0.118 µM (active) | 0.292 µM (active) | 0.162 µM (active) | 0.319 µM (active) | 0.105 µM (active) | 0.274 µM (active) | 0.394 µM (active) | > 100 µM (inactive)
